We go through five compounds from patent US4338330A, “Benzimidazole derivatives, their use, and compositions containing these derivatives” (Continental Pharma, priority 1979, dated 1982).

In data set [1] the test system is β1 cardiac receptors versus β2 tracheal receptors. The data set can be described thus: Cardioselectivity (auricles versus trachea). Also on record: species or system guinea pig. Particulars: from difference of pA2 on auricles and trachea. As to the method:
(§1) The effect on β1 cardiac receptors is measured by inhibition of the chronotropic response to noradrenaline of guinea pig auricles and of the inotrope response to isoproterenol of guinea pig left auricles which were electrically stimulated. The cardioselectivity is appreciated by measuring the antagonist effect at the level of β2 receptors of the guinea pig trachea. To this end, a tracheal chain is contracted by a maximum concentration of histamine and inhibition of relaxation by isoproterenol is measured. The values calculated for cardioselectivity are obtained by considering the difference between pA2 values of the chronotrope response and the relaxation on the one hand (1st column) and of the inotrope response and relaxation on the other hand (2nd column). For these various experiences, pA2 is calculated according to the Van Rossum method (Arch. Inern. Pharmacodyn., 143, 299-330, 1963).

In data set [2] the target is T1, β1 cardiac receptors (Cavia porcellus, UniProt H0W3H1).
T1 construct: chronotropic response to noradrenaline of guinea pig auricles; from tissue; host or cells: guinea pig auricles (chronotropic response); electrically stimulated guinea pig left auricles (inotropic response)
The data set can be described thus: β-lytic activity: inhibition of inotrope response to isoproterenol of electrically stimulated left auricles (pA2). Also noted: species or system guinea pig. As to the method: as §1, with “column).” for “column). For these various experiences, pA2 is calculated according to the Van Rossum method (Arch. Inern. Pharmacodyn., 143, 299-330, 1963).”

The target of data set [3] is T1, β1 cardiac receptors. The data set can be described thus: β-lytic activity: inhibition of chronotropic response to noradrenaline of auricles (pA2). Also on record: species or system guinea pig. As to the method: as §1, with “column).” for “column). For these various experiences, pA2 is calculated according to the Van Rossum method (Arch. Inern. Pharmacodyn., 143, 299-330, 1963).”

The nature of data set [4]: Antihypertensive activity, oral, unanesthetized spontaneously hypertensive rats. In kind it is in vivo. Particulars: 60 mg/kg oral; for Antihypertensive activity (score): spontaneously hypertensive rats; for Antihypertensive activity (index): systolic pressure difference (cmHg) every 30 min multiplied by time coefficient 1 to 6. As to the method:
[…] Only rats having a systolic pressure of 180 to 220 mm Hg are used. Two rats are used by product. The treatments are administered without the knowledge of the person making the measure.
The antihypertensive effects were recorded according to a score followed by an index. The scoring system is as follows.
The index is calculated by multiplying the systolic pressure difference (cmHg) measured every 30 minutes after the treatment, by a coefficient of 1 to 6 corresponding to times of 30 to 180 minutes.

Data set [5] can be described thus: Peripheral vasodilator activity, anesthetized dog, femoral arterial circulation. In kind it is in vivo. Particulars: 30 μg/kg injected directly. As to the method: The peripheral vasodilator activity was measured on anesthetized dog at the level of femoral arterial circulation. To this end, the femoral artery the collaterals of which have been ligated is perfused at constant rate with blood taken from aorta. The perfusion pressure measured at the level of the femoral artery thus varies as a function of the resistance of the perfused area. The tested products and the corresponding solvents are directly injected at the dose of 30 μg/kg. The cardiac output being maintained constant, a vasodilation is thus measured by a decrease of the perfusion pressure. The latter is scored in comparison with the action of papaverine, considered as a reference and injected one time by group of 4 products. When interesting, the products are tested with other doses under the same conditions.
The vasodilator activity is appreciated as follows: […]

Data set [6] has as its system guinea pig ileum contractions induced by histamine. The experiment in a line: Antispasmodic activity against ileum contractions induced by histamine. As to the method: (§2) The antispasmodic activity of the studied substances was examined against guinea pig ileum contractions induced by histamine and acetylcholine.
(§3) These experiences allow to make it obvious an antihistaminic, anticholinergic or musculotrope activity. The response to the contracting agent (sub-maximum concentration) is obtained every 5 minutes before and after injection of increasing concentrations of tested products (10^-7 M to 10^-4 M). The inhibition percentage under the influence of tested products is calculated and the theoretical concentration giving 50% of inhibition is graphically determined for each experience. These values are expressed in -log CI50 (M).

Data set [7] in a line: LD50 in mice, oral (Lichtfield and Wilcoxon method). It is filed as in vivo. Particulars: mouse, in vivo, po, read-out: LD50. Here is the method:
LD50 were determined according to the Lichtfield and Wilcoxon method (J. Pharmacol. Exp. Ther. 96, 99, 1949) and expressed in mg/kg. The products were administered to mice orally.

Data set [8] concerns isolated guinea pig auricles. The data set can be described thus: Chronotrope effect of the substance on isolated auricles. Particulars: 10^-6 M, 20 minutes, Tyrode, 29° C. As to the method:
The β-lytic effect was searched on the chronotropic response to noradrenaline of isolated guinea pig auricles. Auricles were incubated for 20 minutes in a Tyrode solution at 29° C. in the presence of the substance to be tested at the concentration of 10^-6 M. A positive (+) or negative (-) chronotrope effect of the substance was noted using the following scores: […]

In data set [9] the test system is chronotropic response to noradrenaline of isolated guinea pig auricles. The experiment in a line: β-lytic effect on the chronotropic response to noradrenaline of isolated auricles. The settings on record: 10^-6 M. Here is the method:
The β-lytic effect was searched on the chronotropic response to noradrenaline of isolated guinea pig auricles. Auricles were incubated for 20 minutes in a Tyrode solution at 29° C. in the presence of the substance to be tested at the concentration of 10^-6 M. A positive (+) or negative (-) chronotrope effect of the substance was noted using the following scores:
Then, the chronotrope effect of cumulative increasing concentrations of noradrenaline was recorded. The pD2 (-log CE50) value was calculated. A score of β-lytic activity of the substance was given as follows:
If the score at concentration of 10^-6 M was 3 or 4, the effect of the substance was examined at concentration of 10^-7 M and a score was recorded according to the same procedure.

The test system of data set [10] is guinea pig ileum contractions induced by acetylcholine. The experiment in a line: Antispasmodic activity against ileum contractions induced by acetylcholine. As to the method:
as §2, §3

T1 sequence (H0W3H1 1-470): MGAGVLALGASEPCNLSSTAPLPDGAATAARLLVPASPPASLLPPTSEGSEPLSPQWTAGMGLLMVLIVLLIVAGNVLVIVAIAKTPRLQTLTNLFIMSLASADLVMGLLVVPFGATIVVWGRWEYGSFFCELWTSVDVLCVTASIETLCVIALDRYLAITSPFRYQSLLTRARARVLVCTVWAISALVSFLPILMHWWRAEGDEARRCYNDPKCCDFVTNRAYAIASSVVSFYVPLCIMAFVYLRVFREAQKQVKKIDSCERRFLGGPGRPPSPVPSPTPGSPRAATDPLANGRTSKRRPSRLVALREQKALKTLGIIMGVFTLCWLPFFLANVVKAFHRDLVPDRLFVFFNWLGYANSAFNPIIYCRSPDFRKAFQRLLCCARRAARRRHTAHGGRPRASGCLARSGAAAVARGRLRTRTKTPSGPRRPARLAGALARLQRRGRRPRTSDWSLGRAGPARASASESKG

Regarding `CC(C)NCC(O)COc1ccc(CC(N)=O)cc1` (centres unmarked) [Atenolol, reference compound], the “times more active on β cardiac receptors than on β2 receptors” value in data set [1] worked out at 50 times. Further, the Kb on β1 cardiac receptors [2] was 129 nM; on β1 cardiac receptors [3], 44.7 nM.
Consider `OC(CNCCOc1ccccc1)COc1ccc(-c2nc3ccccc3[nH]2)cc1` (centres unmarked) [Compound 3, 2-{4-[3-(2-phenoxyethylamino)-2-hydroxypropoxy]phenyl}benzimidazole], for which, in [4], the “Antihypertensive activity (score)” value is “+++ (reduction of 30 to 50 mm Hg)” and the “Antihypertensive activity (index)” value came to 50. In addition, the Peripheral vasodilator activity entry in [5] is on record as “active”. For the same compound, in [6], the “Antispasmodic activity, Hist. (-log CI50 (M))” value was 6.52 -log CI50 (M). In addition, the LD50 in data set [7] is more than 3000 mg/kg. The “Chronotrope effect (score)” value in data set [8] was 0 (if the frequency modification was comprised between +6 and -6). Further, the “β-lytic effect (score)” value in [9] was 2 (if 6.40≥pD2 ≥6.01). For the same compound, the “Antispasmodic activity, Ac. Chol. (-log CI50 (M))” value in data set [10] was 6.43 -log CI50 (M).
With `OC(CNCCCCc1ccccc1)COc1ccc(-c2nc3ccccc3[nH]2)cc1` (centres unmarked) [Compound 6], in [4], the “Antihypertensive activity (score)” value is recorded as 0 (reduction <10 mm Hg). The Peripheral vasodilator activity result in data set [5] is given as “active”. In [6], the “Antispasmodic activity, Hist. (-log CI50 (M))” value was 6.89 -log CI50 (M). The LD50 in data set [7] was more than 3000 mg/kg. Also, in data set [8], the “Chronotrope effect (score)” value is listed as -1. The “β-lytic effect (score)” value in data set [9] was 0 (if pD2 ≥6.81). In addition, the “Antispasmodic activity, Ac. Chol. (-log CI50 (M))” value in data set [10] is 7.12 -log CI50 (M).
With `CC(CCc1ccccc1)NCC(O)COc1ccc(-c2nc3ccccc3[nH]2)cc1` (centres unmarked) [Compound 7], in data set [4], the “Antihypertensive activity (score)” value is recorded as “+ (reduction of 10 to 20 mm Hg)” and the “Antihypertensive activity (index)” value is 18. Also, the Peripheral vasodilator activity result in data set [5] is on record as “active”. In addition, the “Antispasmodic activity, Hist. (-log CI50 (M))” value in data set [6] is listed as 6.25 -log CI50 (M). In addition, in [7], the LD50 was more than 3000 mg/kg. Moreover, in [8], the “Chronotrope effect (score)” value was 0 (if the frequency modification was comprised between +6 and -6). Moreover, the “β-lytic effect (score)” value in data set [9] was 0 (if pD2 ≥6.81). Also, the “Antispasmodic activity, Ac. Chol. (-log CI50 (M))” value in [10] is given as 6.23 -log CI50 (M).
Consider `OC(CNCCCCSc1ccccc1)COc1ccc(-c2nc3ccccc3[nH]2)cc1` (centres unmarked) [Compound 23], for which the “Antihypertensive activity (score)” value in data set [4] was 0 (reduction <10 mm Hg). The Peripheral vasodilator activity result in data set [5] is listed as “active”. Also, the “Antispasmodic activity, Hist. (-log CI50 (M))” value in [6] is 6,05 -log CI50 (M). Besides, the “Chronotrope effect (score)” value in data set [8] is 0 (if the frequency modification was comprised between +6 and -6). In addition, in data set [9], the “β-lytic effect (score)” value is 0 (if pD2 ≥6.81). In data set [10], the “Antispasmodic activity, Ac. Chol. (-log CI50 (M))” value was 5,74 -log CI50 (M).
